Paper PMC6751184, “Heme and hemoglobin utilization by Mycobacterium tuberculosis” (Nature Communications, 2019)

Target: DppA (Rv3666c), substrate-binding protein of the Dpp transporter (Mycobacterium tuberculosis, UniProt I6X811)
Test: […]; also difference absorption spectroscopy

DppA (Rv3666c), substrate-binding protein of the Dpp transporter, sequence (I6X811 entry or part of it): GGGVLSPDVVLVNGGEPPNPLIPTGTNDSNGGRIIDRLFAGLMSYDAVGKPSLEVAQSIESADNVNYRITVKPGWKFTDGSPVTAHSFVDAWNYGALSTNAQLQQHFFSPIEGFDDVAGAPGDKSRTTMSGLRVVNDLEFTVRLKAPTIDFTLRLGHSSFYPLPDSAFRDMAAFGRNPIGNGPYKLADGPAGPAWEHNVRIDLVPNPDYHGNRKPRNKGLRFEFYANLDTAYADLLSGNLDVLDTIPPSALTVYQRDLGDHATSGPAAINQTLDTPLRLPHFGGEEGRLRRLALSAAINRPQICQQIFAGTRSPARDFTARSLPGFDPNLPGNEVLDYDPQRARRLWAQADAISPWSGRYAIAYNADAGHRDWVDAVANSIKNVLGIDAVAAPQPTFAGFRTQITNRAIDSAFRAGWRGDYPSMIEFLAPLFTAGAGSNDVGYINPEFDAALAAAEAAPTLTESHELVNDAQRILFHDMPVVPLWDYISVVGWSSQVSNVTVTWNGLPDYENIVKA

## C=CC1=C(C)C2=Cc3c(C=C)c(C)c4[n]3[Fe]([Cl])[n]3c(c(C)c(CCC(=O)O)c3=CC3=NC(=C4)C(C)=C3CCC(=O)O)=CC1=N2 [hemin]
  Kd: ~1500 nM
